This is an account of results in the Deep4Chem optical property database.

The series in a line: solvent given as SMILES.

`CCC1(CC)c2cc(-c3ccc(C(C)(C)C)cc3)ccc2-c2ccc(-c3ccc4c(c3)C(CC)(CC)c3cc(-c5ccc6c(c5)C(CC)(CC)c5cc(-c7ccc(C(C)(C)C)cc7)ccc5-6)ccc3-4)cc21`: the fluorescence lifetime (in CCCCC) was determined as 0.65 ns; the fluorescence lifetime (in CCCCCC) was found to be 0.62 ns; the fluorescence lifetime (in CCCCCCC) was 0.61 ns; the fluorescence lifetime (in CCCCCCCC) is 0.64 ns; the fluorescence lifetime (in CCCCCCCCC) turned out to be 0.62 ns; the fluorescence lifetime (in CCCCCCCCCC) worked out at 0.64 ns. For the same compound, the fluorescence lifetime is 0.64 ns (in CCCCCCCCCCCC); 0.65 ns (in CCCCCCCCCCCCC); 0.64 ns (in CCCCCCCCCCCCCCC); 0.63 ns (in CCCCCCCCCCCCCCCC); 0.64 ns (in CCCCCCCCCCO); 0.64 ns (in CCCCCCCCCO). Also, the fluorescence lifetime was 0.63 ns (in CCCCCCCCO); 0.64 ns (in CCCCCCCO); 0.64 ns (in CCCCCCO); 0.65 ns (in CCCCCO); 0.64 ns (in CCCCO); 0.65 ns (in CCCO). The same compound gave a fluorescence lifetime (in CCO) of 0.67 ns and a fluorescence lifetime (in CO) of 0.67 ns.

Turning to `CC1=[N+]2C(=C(NCc3ccccc3)c3ccc(C)n3[B-]2(F)F)C=C1c1cc2n(c1)[B-](F)(F)[N+]1=CC=CC1=C2c1c(C)cc(C)cc1C`, the fluorescence lifetime was determined as 2.19 ns (in C1CCCCC1) and 0.54 ns (in CCOC(C)=O).

On to `Cc1cc(C)c(C)c(B(c2c(C)c(C)cc(C)c2C)c2c(C)c(C)c(N3c4ccccc4Oc4ccccc43)c(C)c2C)c1C`, for which the fluorescence lifetime (in CC(C)(C)c1ccc(-n2c3ccc([Si](c4ccccc4)(c4ccccc4)c4ccccc4)cc3c3cc([Si](c4ccccc4)(c4ccccc4)c4ccccc4)ccc32)cc1) is 5.9 ns.

Compound `CCCCC(CC)CN1C(=O)c2cc(Oc3ccc(OC)cc3)c3c4c(Cl)cc5c6c(cc(Cl)c(c7c(Oc8ccc(OC)cc8)cc(c2c37)C1=O)c64)C(=O)N(c1c(C(C)C)cccc1C(C)C)C5=O` (stereo not given) displayed a fluorescence lifetime (in Cc1ccccc1) of 0.56 ns.

Regarding `CCCN1C(=O)c2c3c(c4c(c2C1=O)CCc1cc(-c2ccc(N(C)C)cc2)c(OC)cc1-4)-c1cc(OC)c(-c2ccc(N(C)C)cc2)cc1CC3`, the fluorescence lifetime was 5.13 ns (in C1CCCCC1); 0.93 ns (in C1CCOC1); 0.85 ns (in CCOC(C)=O); 5.64 ns (in Cc1ccccc1); 0.38 ns (in ClCCl).

Compound `c1ccc([B-]23NC(C4CCCCC4)=Nc4cccc([n+]42)N=C(C2CCCCC2)N3)cc1` registered a fluorescence lifetime (in ClCCl) of 4.6 ns.

`COc1cc2c(cc1-c1ccc(N(c3ccccc3)c3ccccc3)cc1)Cc1c3c(c4c(c1-2)-c1cc(OC)c(-c2ccc(N(c5ccccc5)c5ccccc5)cc2)cc1C4)C(=O)N(CCC(C)C)C3=O`: the fluorescence lifetime (in C1CCOC1) stood at 4.14 ns.

`Cc1cc(-c2cccc3ccccc23)cc(C)[o+]1` had a fluorescence lifetime (in ClCCl) of 13.4 ns.

As to `CCCCCCCCCCCCn1cccc1/C=C/c1cc(OCCCC)c(/C=C/c2cccn2CCCCCCCCCCCC)cc1OCCCC`, the fluorescence lifetime (in Cc1ccccc1) was 1.26 ns.

As to `CCCCCCCCCCCn1cccc1C1=[N+]2C(=Cc3c(C)cc(C)n3[B-]2(F)F)c2ccccc21`, the fluorescence lifetime (in ClCCl) was 8.89 ns.

Where the note is “in ClC(Cl)Cl”, `C(#Cc1ccccc1)C(C#Cc1ccccc1)=Cc1ccc2cc(C=C(C#Cc3ccccc3)C#Cc3ccccc3)ccc2c1` returned a fluorescence lifetime of 1.1 ns.

The compound `O=[N+]([O-])c1ccc2c(c1)-c1c3c(c4c([n+]1[B-](F)(F)O2)CCc1ccccc1-4)CCc1ccccc1-3` yielded a fluorescence lifetime (in ClCCl) of 0.63 ns.

Consider `CCn1c2ccccc2c2cc(-c3cc(-c4ccc5c(c4)c4ccccc4n5CC)nc(-c4ccc(C#N)cc4)n3)ccc21`, for which, under “in C1CCOC1”, the fluorescence lifetime worked out at 5.14 ns.

Consider `c1ccc(-n2cccc2)cc1`, for which the fluorescence lifetime stood at 3.6 ns (in CC#N) and 3.5 ns (in CCCCCC).

The compound `CCCCCCCCN(CCCCCCCC)c1ccc(/C=C/c2ccc(C#Cc3ccc(-c4ccc(C#Cc5ccc(/C=C/c6ccc(N(CCCCCCCC)CCCCCCCC)cc6)cc5)cc4)cc3)cc2)cc1` gave a fluorescence lifetime (in Cc1ccccc1) of 0.4 ns.

Regarding `c1ccc(-c2nn(-c3ccccc3)c3nc4ccc(N(c5ccccc5)c5cccc6ccccc56)cc4cc23)cc1`, the fluorescence lifetime is, setting by setting: (in C1CCCCC1) 11.3 ns; (in C1CCOC1) 15.5 ns; (in CC#N) 16.3 ns; (in CC(C)=O) 19.3 ns; (in CCCCCl) 14.9 ns; (in CCCCOCCCC) 12.9 ns. Further, the fluorescence lifetime (in CN(C)C=O) came out at 15.8 ns.

Take `c1ccc(Nc2nc(Nc3ccccc3)nc(Nc3ccc4cc5ccccc5cc4c3)n2)cc1`: the fluorescence lifetime runs as follows: (in C1COCCO1) 13.3 ns; (in CCOC(C)=O) 9 ns.

For `ClP1(Cl)=N[P@@](Cl)(Oc2ccc3ccc4cccc5ccc2c3c45)=N[P@@](Cl)(Oc2ccc3ccc4cccc5ccc2c3c45)=N1`, for the setting “in ClCCl”, the fluorescence lifetime was determined as 2.02 ns.

Regarding `CCn1c2ccccc2c2cc(-c3cc(-c4ccc5c(c4)c4ccccc4n5CC)nc(S(C)(=O)=O)n3)ccc21`, the fluorescence lifetime (in C1CCOC1) was 2.31 ns.

In turn, `CC(C)(C)c1ccc(C2=C(c3ccc(-n4c5ccc(C(C)(C)C)cc5c5cc(C(C)(C)C)ccc54)cc3)S(=O)(=O)c3c2sc(-c2ccc(-n4c5ccc(C(C)(C)C)cc5c5cc(C(C)(C)C)ccc54)cc2)c3-c2ccc(C(C)(C)C)cc2)cc1` yielded a fluorescence lifetime (in C1CCOC1) of 1.1 ns.

`COc1cc(OC)cc(C2=[O+][B-](F)(F)OC(c3cccs3)=C2)c1` yielded a fluorescence lifetime (in ClCCl) of 4.53 ns.

For `Cc1nc2c(c[n+]1C)CN1C(=O)N([C@H]3O[C@@H](CO)[C@H](O)[C@@H]3O)C=CC1=N2`, the fluorescence lifetime was 3.61 ns (in CC#N); 3.12 ns (in CC(C)=O); 0.39 ns (in CCCO); 0.47 ns (in CCO); 0.55 ns (in CO); 1.58 ns (in O). In addition, the fluorescence lifetime came to 0.58 ns (in [2H]OC), 0.5 ns (in [2H]OCC) and 1.86 ns (in [2H]O[2H]).

As for `O=C1NC(=O)c2c1c1c3ccccc3[nH]c1c1[nH]c3ccccc3c21`, the fluorescence lifetime reads like this: (in C1CCOC1) 8.6 ns; (in CC#N) 10 ns; (in CC(C)OC(C)C) 7.3 ns; (in CCCCOCCCC) 8 ns; (in CCO) 7.7 ns; (in CCOC(C)=O) 8.6 ns. Also, the fluorescence lifetime is, setting by setting: (in CN(C)C=O) 13 ns; (in ClCCl) 7.1 ns.

In the case of `N#Cc1ccc(C[C@H](N)C(=O)O)cc1`, the fluorescence lifetime reads like this: (in C1CCOC1) 3.65 ns; (in CC#N) 3.73 ns; (in CC(C)O) 4 ns; (in CC(O)CO) 4.28 ns; (in CCCCO) 4.6 ns; (in CCCO) 4.4 ns. The same compound came in with a fluorescence lifetime (in CCO) of 4.1 ns; a fluorescence lifetime (in CO) of 6.1 ns; a fluorescence lifetime (in NC=O) of 4.54 ns; a fluorescence lifetime (in O) of 7 ns; a fluorescence lifetime (in O=CO) of 8.1 ns.

`CCCCCCCCCCCCOc1cc2c3c(ccc4c5c(OC6CCC(C(C)(C)C)CC6)cc6c7c(ccc(c1c34)c75)C(=O)N(C1CCCCC1)C6=O)C(=O)N(C1CCCCC1)C2=O` (stereo not given) had a fluorescence lifetime (in ClC(Cl)Cl) of 5 ns.

With `O=S(=O)([O-])CCCCN1C=C/C(=C/C=C/C=C/c2cc[n+](CCCCS(=O)(=O)[O-])c3ccccc23)c2ccccc21`, the fluorescence lifetime (in CS(C)=O) was determined as 0.36 ns.

Under “in ClCCl”, `COC(=O)c1cc(=O)n(C)c2cc(-c3ccccc3N(C)C)sc12` came in with a fluorescence lifetime of 1.23 ns.

As to `CCN(CC)c1ccc2cc(/C(Cl)=C/C=C/C(=C(C#N)C#N)c3ccc4c(c3)c3ccccc3n4CC)c(=O)oc2c1`, the fluorescence lifetime came out at 0.47 ns (in CC(C)=O); 1.14 ns (in CCOC(C)=O); 0.86 ns (in CN(C)C=O); 0.36 ns (in CS(C)=O); 1.39 ns (in Cc1ccccc1); 1.82 ns (in ClCCl).
